Experimental data published in ChEMBL document CHEMBL4418281, “Carboxamide inhibitors” (2017).

What was measured:
[1] = target: E3 ubiquitin-protein ligase SMURF2 (Homo sapiens, UniProt Q9HAU4); test: Inhibition of SMURF2 (unknown origin) in presence of E1/E2/Ub mix measured after 45 mins by europium-labeled streptavidin based TR-FRET assay
[2] = target: E3 ubiquitin-protein ligase SMURF1 (Homo sapiens, UniProt Q9HCE7); test: Inhibition of SMURF1 (unknown origin) in presence of E1/E2/Ub mix measured after 45 mins by europium-labeled streptavidin based TR-FRET assay
Sequence of E3 ubiquitin-protein ligase SMURF1 (Q9HCE7 whole entry): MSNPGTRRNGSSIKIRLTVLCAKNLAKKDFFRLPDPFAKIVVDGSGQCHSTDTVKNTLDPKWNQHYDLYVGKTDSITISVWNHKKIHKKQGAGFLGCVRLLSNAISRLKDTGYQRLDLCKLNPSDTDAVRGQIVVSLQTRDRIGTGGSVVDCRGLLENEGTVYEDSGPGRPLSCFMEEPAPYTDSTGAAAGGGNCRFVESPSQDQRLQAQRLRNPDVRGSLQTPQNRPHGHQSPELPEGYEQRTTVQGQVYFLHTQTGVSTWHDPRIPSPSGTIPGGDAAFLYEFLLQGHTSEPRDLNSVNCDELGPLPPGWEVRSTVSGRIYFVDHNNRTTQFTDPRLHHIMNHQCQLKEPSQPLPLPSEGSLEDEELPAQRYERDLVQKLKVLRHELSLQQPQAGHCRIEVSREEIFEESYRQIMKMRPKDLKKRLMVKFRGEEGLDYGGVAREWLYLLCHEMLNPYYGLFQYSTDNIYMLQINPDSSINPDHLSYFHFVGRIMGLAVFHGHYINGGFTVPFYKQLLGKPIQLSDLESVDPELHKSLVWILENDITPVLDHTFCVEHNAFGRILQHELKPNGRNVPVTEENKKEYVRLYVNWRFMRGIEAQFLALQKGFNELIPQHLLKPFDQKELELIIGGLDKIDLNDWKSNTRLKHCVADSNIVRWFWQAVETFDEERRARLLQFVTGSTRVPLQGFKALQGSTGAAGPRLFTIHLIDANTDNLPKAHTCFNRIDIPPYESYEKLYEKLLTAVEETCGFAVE

Sequence of E3 ubiquitin-protein ligase SMURF2 (Q9HAU4 whole entry): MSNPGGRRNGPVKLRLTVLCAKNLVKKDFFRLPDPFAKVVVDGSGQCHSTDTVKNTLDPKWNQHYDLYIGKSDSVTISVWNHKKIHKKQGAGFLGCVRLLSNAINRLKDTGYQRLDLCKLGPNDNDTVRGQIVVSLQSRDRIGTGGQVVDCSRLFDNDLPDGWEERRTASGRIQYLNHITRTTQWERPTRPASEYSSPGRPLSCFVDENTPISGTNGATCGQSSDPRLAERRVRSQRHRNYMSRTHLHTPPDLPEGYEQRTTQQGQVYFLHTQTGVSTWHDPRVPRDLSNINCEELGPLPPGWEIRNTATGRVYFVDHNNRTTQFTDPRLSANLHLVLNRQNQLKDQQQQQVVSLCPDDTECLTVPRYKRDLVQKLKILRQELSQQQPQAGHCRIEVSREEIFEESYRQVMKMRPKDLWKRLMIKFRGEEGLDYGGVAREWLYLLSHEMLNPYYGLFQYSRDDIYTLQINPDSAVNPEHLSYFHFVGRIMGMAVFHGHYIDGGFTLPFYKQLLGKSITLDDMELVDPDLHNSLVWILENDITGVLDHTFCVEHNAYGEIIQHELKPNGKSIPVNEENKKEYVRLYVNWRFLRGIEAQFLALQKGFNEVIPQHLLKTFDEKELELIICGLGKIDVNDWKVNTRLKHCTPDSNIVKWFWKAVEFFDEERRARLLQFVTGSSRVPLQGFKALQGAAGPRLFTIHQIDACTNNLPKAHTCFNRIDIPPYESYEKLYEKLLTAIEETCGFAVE

SMILES	IC50 [1] [µM]	IC50 [2] [µM]
COc1ccc2c(c1)CCCc1c(C(=O)Nc3c(C)n(C)n(Cc4ccc(F)cc4)c3=O)noc1-2	20	–
Cc1c(NC(=O)c2noc3c2CCCc2cc(CC(C)C)ccc2-3)c(=O)n(-c2ccccc2Cl)n1C	0.74	0.0225
Cc1c(NC(=O)c2noc3c2CCCc2cc(OC(F)(F)F)ccc2-3)c(=O)n(Cc2ccc(F)cc2)n1C	20	–
Cc1c(NC(=O)c2noc3c2CCCc2cc(OC(F)(F)F)ccc2-3)c(=O)n(Cc2ccccc2F)n1C	20	–
